Reference: article PMC6305444, “Advancement of the 5-Amino-1-(Carbamoylmethyl)-1H-1,2,3-Triazole-4-Carboxamide Scaffold to Disarm the Bacterial SOS Response” (Frontiers in Microbiology, 2018)

Columns and labels:
[1] = biological target: T1, E. coli FlAsH-LexA (RecA-promoted LexA cleavage) (Escherichia coli, UniProt P0A7C2); assay: biochemical
Experimental: (§6) IC50 values were routinely determined using the E. coli FlAsH-LexA cleavage assay previously used to perform HTS ([Mo et al., 2018]). In this assay RecA-promoted LexA cleavage is monitored using fluorescence polarization. […] Reactions were performed in 384-well plates and components were added as 10 μL additions of ATPγS, ssDNA and RecA, in buffer and 10 μL of E. coli FlAsH-LexA in buffer using a Janus liquid handler (Perkin-Elmer). Compound was added as a DMSO solution using a pin tool, and the final concentration of DMSO in the reaction was 1.2%. Once the reaction components were combined, reactions were centrifuged for 1 min at 500 rpm and incubated for 30 min at room temperature. Reactions were quenched with a 10 μL addition of 50 mM EDTA and plates were read on a Tecan Infinite F200 Pro plate reader (Tecan US, Inc., Morrisville, NC, United States). […] On each plate 32 positive (-RecA) and 32 negative controls (+RecA) in which DMSO without compound was added were used to define the range of mP and calculate the fraction inhibited.
(§7) IC50 values were estimated by non-linear least squares fitting to the data using Equation 1.
(§8) where FI = Fraction inhibited, [I] = Concentration of compound and n = Hill coefficient. Fitting was performed using Igor Pro (WaveMetrics Inc., Lake Oswego, OR, United States).

[2] = Solubility (inferred from titration curves in assay buffer; DMSO stocks); assay type: physicochemical; settings: FlAsH-LexA cleavage assay buffer, aqueous buffer; suggested by normal titration curves in FlAsH-LexA assay buffer; read-out: aqueous solubility maintained up to
Description: Representative titrations for the compounds can be found in the Supplementary Figure 1.

[3] = biological target: T1, E. coli FlAsH-LexA (RecA-promoted LexA cleavage); settings: for activity in FlAsH-LexA cleavage assay (in words): highest concentration 111 μM; for rank order of activities, ortho mono-substitution on area A phenyl: FlAsH-LexA cleavage assay
Experimental: as §6, §7, §8

[4] = Cytotoxicity testing with HG2 cells; assay type: cell-based
[5] = biological target: T2, full length LexA from P. aeruginosa (RecA*-mediated cleavage) (Pseudomonas aeruginosa, UniProt P37452); assay: Orthogonal 32P-LexA cleavage assay, full-length P. aeruginosa LexA; assay type: biochemical
T2 construct: examining RecA^∗-mediated cleavage of full length LexA from P. aeruginosa; made in house
Experimental: (§1) Full-length E. coli and P. aeruginosa LexA were engineered with a RRXS phosphorylation site on the N-terminus of the full-length protein, allowing for ^32P labeling by protein kinase A to produce ^32P-LexA, as described previously ([Mo et al., 2018]). Reactions contained 100 nM ^32P-LexA, 200 nM RecA and 10 μM ATPγS and the buffer conditions were identical to those in the HTS assay. Compounds were added in DMSO and the final concentration was 2%. Reactions were incubated for 30 min at room temperature after which 2 × Laemmli buffer was added to stop the assay. The stopped reactions were subjected to 15% SDS-PAGE and the gels were visualized via phosphorimaging on a Typhoon imager (GE Healthcare Bio-Sciences, Marlborough, MA, United States). The intact and cleaved bands were quantified using Quantity One (Bio-Rad, Hercules, CA, United States) and the fraction inhibited was calculated. […] Plots of fraction inhibited against compound concentration were fitted to Equation 1.

[6] = test system: recA promoter GFP reporter (SOS response); assay: Cell-based SOS reporter assay (GFP under recA promoter, ciprofloxacin-induced); design: species or system E. coli MG1655 ΔsulA ΔtolC; settings: Escherichia coli, 2 h, read-out: IC50, GFP assay
Experimental: An E. coli MG1655 strain lacking sulA (ΔsulA) and the tolC transporter (ΔtolC) ([Mo et al., 2016]) was transformed with a reporter plasmid in which gfp expression was under the control of the recA promoter (pMS201 pRecA GFP) ([Zaslaver et al., 2006]). To perform assays overnight, cultures of the reporter strain were diluted 100-fold in M9 minimal media and grown at 37°C with agitation to an OD595 of ∼0.6. For each reaction sample 100 μL of culture were mixed with 100 μL of M9 minimal media containing ciprofloxacin (256 ng/mL). Pre-diluted compounds were added (5 μL) in DMSO and cultures were incubated at 37°C with agitation for 2 h after which the cells were fixed by adding 200 μL of phosphate buffered saline, pH 7.4 containing 1% paraformaldehyde. After 1 h of fixing, the cells were spun down at 4,000 rpm and re-suspended in phosphate buffered saline, pH 7.4. Fixed cells were analyzed using flow cytometry (BD FACSCalibur, Ex/Em: 488 nm/530 nm) and the mean fluorescence of 20,000 cells in each condition was recorded.

[7] = biological target: T3, LexA-S119A / Cy5-labeled SOS operator DNA (Escherichia coli, UniProt P0A7C2, S119A); assay: Electrophoretic mobility shift assay (EMSA), LexA binding to SOS operator DNA; settings: compound vs DMSO
T3 construct: made in house
Experimental: Increasing concentrations (0–1 μM) of LexA-S119A were mixed with 10 nM SOS operator DNA labeled with Cy5 in EMSA running buffer (70 mM Tris-HCl pH 7.5, 10 mM MgCl2, 150 mM NaCl, 5 mM DTT, 0.1 mg/ml BSA, 10 ng/μL ssDNA, 5% glycerol, 0.04% bromophenol blue) in the presence of 50 μM of compound (or DMSO carrier). After incubation at room temperature for 30 min, 20 μL of each reaction was subjected to 6% native PAGE. Gels were visualized on a Typhoon Imager using default fluorescence filter settings for Cy5. Gel bands were quantified using ImageJ (NIH, Bethesda, MD, United States) to determine the fraction of bound DNA at each LexA concentration. Data were fitted to a variable-slope sigmoidal dose-response curve.

ΔtolC E. coli [8] = assay: Frequency of resistance (rifampin-resistance mutation rate); assay type: cell-based
Experimental: A starter culture of ΔtolC E. coli was cultured overnight at 37°C with shaking in LB broth. The next day the culture was diluted 3 × 10^7-fold in to LB broth. The dilution was used to produce four sets of twelve cultures, each containing 1 mL. To one set was added 10 μL of deionized H2O plus 10 μL of DMSO, to the second set was added 10 μL of 125 ng/mL ciprofloxacin in deionized H2O plus 10 μL of DMSO, to the third set was added 10 μL of deionized H2O plus 10 μL of a 10 mM solution of 14 in DMSO and to the fourth set was added 10 μL of 125 ng/mL ciprofloxacin in deionized H2O plus 10 μL of 14 in DMSO.
The 48 cultures were incubated at 37°C with shaking for 48 h. To determine the population size, spot plating was performed starting with 1 μL of the cultures diluted 10^5-fold. A 100 μL aliquot of each 10^5-fold dilution was transferred to a 96-well plate and serially diluted (10-fold dilutions) into LB broth. The dilutions (5 μL) were spotted on LB agar plates and the plates were incubated overnight at 37°C. To determine the rifampin resistant population, 999 μL of each 1 mL culture was centrifuged at 6000 rpm for 10 min to remove the cells from solution and the cells were suspended in 100 μL of autoclaved 0.15 M NaCl. The 100 μL solutions were plated on the LB plates containing 100 μg/mL rifampin and incubated for 2 days at 37°C. Following counting of the colonies the program bz-rates ([Gillet-Markowska et al., 2015]) was used to estimate mutation rates.

full length E. coli LexA [9] = biological target: T4, full length E. coli LexA (Escherichia coli, UniProt P0A7C2); assay: Thermal shift assay of LexA; assay type: binding; settings: LexA 5 µM, compound 50 µM; LexA alone Tm 57.4 ± 0.4
T4 construct: a fluorescence-independent assay using a full-length version of E. coli LexA was employed; made in house
Experimental: (§2) Supplementary Figure 2. Binding of 14 to LexA alone. (a) Inhibition of the auto-proteolysis of 32P-labelleled full length E. coli LexA by 14 in the absence of RecA. All data represent the mean of two independent measurements and the error bars represent the range of error. The error of the IC50 value is the standard deviation of the fit of equation 1 to the data. (b) Thermal shift observed upon binding of 14 to full length E. coli LexA. The concentrations of LexA and 14 were 5 µM and 50 µM, respectively. The errors for the Tm values are the standard deviations of the fits of equation S1 to the data.
(§3) Cy5-labeled operator DNA Bound DNA
(§4) Supplementary Figure 3. LexA DNA binding activity is not impacted by 14. Varying concentrations of […]
(§5) (SOS box). The titrations were performed in the presence of DMSO or 40 μM of 14. The samples were separated on a non-denaturing polyacrylamide gel (at right) and the bound fraction calculated. […]

[10] = biological target: T5, full-length E. coli LexA (RecA*-induced cleavage) (Escherichia coli, UniProt P0A7C2); assay: Orthogonal 32P-LexA cleavage assay, full-length E. coli LexA; assay type: biochemical
T5 construct: Full-length E. coli and P. aeruginosa LexA were engineered with a RRXS phosphorylation site on the N-terminus of the full-length protein; made in house
Experimental: as §1

full length E. coli LexA [11] = biological target: T4, full length E. coli LexA; assay: Auto-proteolysis of 32P-labelled full length E. coli LexA in the absence of RecA; assay type: biochemical
Experimental: as §2, §3, §4, §5

ΔtolC E. coli [12] = assay: MIC of ciprofloxacin; assay type: cell-based; settings: Escherichia coli

T1 sequence (P0A7G6 2-353): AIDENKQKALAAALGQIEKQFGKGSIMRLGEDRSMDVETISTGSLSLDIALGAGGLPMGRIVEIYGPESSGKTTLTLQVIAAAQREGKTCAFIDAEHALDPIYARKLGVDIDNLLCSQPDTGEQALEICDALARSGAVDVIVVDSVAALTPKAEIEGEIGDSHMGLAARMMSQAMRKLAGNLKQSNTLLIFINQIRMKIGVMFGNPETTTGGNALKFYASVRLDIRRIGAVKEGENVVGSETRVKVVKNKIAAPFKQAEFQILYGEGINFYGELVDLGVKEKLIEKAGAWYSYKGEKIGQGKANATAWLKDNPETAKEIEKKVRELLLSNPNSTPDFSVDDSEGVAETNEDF
T1 sequence (P0A7C2 75-202): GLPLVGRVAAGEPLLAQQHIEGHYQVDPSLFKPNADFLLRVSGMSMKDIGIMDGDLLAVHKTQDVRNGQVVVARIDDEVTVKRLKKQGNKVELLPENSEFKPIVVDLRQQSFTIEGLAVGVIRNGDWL
T2 sequence (P37452 whole entry): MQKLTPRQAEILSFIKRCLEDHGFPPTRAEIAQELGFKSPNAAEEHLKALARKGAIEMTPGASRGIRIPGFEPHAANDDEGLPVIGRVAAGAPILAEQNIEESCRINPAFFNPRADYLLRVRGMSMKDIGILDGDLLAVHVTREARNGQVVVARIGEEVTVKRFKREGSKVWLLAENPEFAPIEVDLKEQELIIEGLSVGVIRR
T4 sequence (P0A7C2 whole entry): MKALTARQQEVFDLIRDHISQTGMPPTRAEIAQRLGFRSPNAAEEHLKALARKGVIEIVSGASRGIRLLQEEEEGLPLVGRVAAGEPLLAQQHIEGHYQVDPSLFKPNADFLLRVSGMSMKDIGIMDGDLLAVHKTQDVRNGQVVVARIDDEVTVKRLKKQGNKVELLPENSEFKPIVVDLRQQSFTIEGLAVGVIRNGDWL
T3 sequence (P0A7C2 whole entry S119A): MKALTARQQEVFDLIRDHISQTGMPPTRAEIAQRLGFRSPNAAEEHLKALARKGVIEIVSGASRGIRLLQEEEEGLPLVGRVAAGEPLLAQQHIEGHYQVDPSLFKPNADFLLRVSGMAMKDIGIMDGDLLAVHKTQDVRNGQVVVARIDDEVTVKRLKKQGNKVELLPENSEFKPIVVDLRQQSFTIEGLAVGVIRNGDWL
T5 sequence (P0A7C2 whole entry): as the sequence (P0A7C2 whole entry) above

## CCOc1ccc(NC(=O)Cn2nnc(C(=O)Nc3cccnc3)c2N)cc1 [Compound 13]
[1]
  IC50: 40 ± 3 µM
[2]
  solubility: ≥ 111 µM
[3]
  activity in FlAsH-LexA cleavage assay (in words): tolerated

## CCOc1ccc(NC(=O)Cn2nnc(C(=O)Nc3ccc(C)cc3)c2N)cc1 [Compound 11]
[1]
  IC50: 15 ± 2 µM
[2]
  solubility: ≥ 111 µM
[3]
  activity in FlAsH-LexA cleavage assay (in words): allowed

## Cc1ccc(NC(=O)c2nnn(CC(=O)NC3CCCCCC3)c2N)cc1C [Compound 4]
[1]
  IC50: 22 ± 3 µM
[2]
  solubility: ≥ 111 µM
[3]
  activity in FlAsH-LexA cleavage assay (in words): returned activity

## Cc1ccc(NC(=O)c2nnn(CC(=O)Nc3ccccc3C)c2N)cc1C [Compound 5]
[1]
  IC50: 17 ± 2 µM
[2]
  solubility: ≥ 111 µM
[3]
  rank order of activities, ortho mono-substitution on area A phenyl: Me (5) > Et (22) > OMe (23) > OEt (24) = H (2)

## Cc1ccc(NC(=O)Cn2nnc(C(=O)Nc3ccc(C)c(C)c3)c2N)cc1 [Compound 7]
[1]
  IC50: 18 ± 1 µM
[2]
  solubility: ≥ 111 µM

## CCOc1ccc(NC(=O)Cn2nnc(C(=O)Nc3ccc(C)c(C)c3)c2N)cc1 [Compound 1]
[4]
  CC50: 277 µM
[1]
  IC50: 32 ± 6 µM
[2]
  solubility: ≥ 111 µM
[5]
  IC50: 130 ± 28 µM

## Cc1ccc(NC(=O)c2nnn(CC(=O)NC3CCCCC3)c2N)cc1C [Compound 3]
[1]
  IC50: 44 ± 4 µM
[2]
  solubility: ≥ 111 µM
[3]
  activity in FlAsH-LexA cleavage assay (in words): returned activity

## Cc1ccc(NC(=O)c2nnn(CC(=O)Nc3ccccc3)c2N)cc1C [Compound 2]
[1]
  IC50: > 100 µM
[3]
  rank order of activities, ortho mono-substitution on area A phenyl: Me (5) > Et (22) > OMe (23) > OEt (24) = H (2)
  activity in FlAsH-LexA cleavage assay (in words): loss of activity

## CCOc1ccc(NC(=O)Cn2nnc(C(=O)Nc3ccccc3)c2N)cc1 [Compound 14, 5-amino-1-{2-[(4-ethoxyphenyl)amino]-2-oxoethyl}-N-phenyl-1H-1,2,3-triazole-4-carboxamide]
[4]
  CC50: > 500 µM
[6]
  IC50: 32 ± 2 µM
[1]
  IC50: 9 ± 1 µM
[7]
  effect on LexA DNA binding (EMSA): not impacted
[2]
  solubility: ≥ 111 µM
[5]
  IC50: 5.9 ± 0.4 µM
ΔtolC E. coli [8]; 100 μM compound
  suppression of ciprofloxacin-induced appearance of resistance to rifampicin: effective in reducing the appearance of resistance to rifampicin
ΔtolC E. coli [8]; 100 μM compound + ciprofloxacin 1.25 ng/mL, rifampin resistance, 48 h
  decrease in per generation mutation rate relative to ciprofloxacin alone: approximately threefold
ΔtolC E. coli [8]; 100 μM compound, no ciprofloxacin
  mutation rate, compound alone: comparable to DMSO alone controls
Full length E. coli LexA [9]
  Tm: 67.0 ± 0.1 °C
[10]
  IC50: 10 ± 1 µM
Full length E. coli LexA [11]
  IC50: 15.2 ± 2.5 µM

## CCOc1ccc(NC(=O)Cn2nnc(C(=O)Nc3cccc(C)c3)c2N)cc1 [Compound 10]
[1]
  IC50: 33 ± 4 µM
[2]
  solubility: ≥ 111 µM
[3]
  activity in FlAsH-LexA cleavage assay (in words): allowed

## CCOC(=O)c1ccc(NC(=O)c2nnn(CC(=O)Nc3ccc(OCC)cc3)c2N)cc1 [Compound 12]
[1]
  IC50: 19 ± 3 µM
[2]
  solubility: ≥ 111 µM
[3]
  activity in FlAsH-LexA cleavage assay (in words): tolerated

## Cc1ccc(NC(=O)Cn2nnc(C(=O)Nc3ccc(C)c(C)c3)c2N)c(C)c1 [Compound 8]
[1]
  IC50: 15 ± 2 µM
[2]
  solubility: ≥ 111 µM
[3]
  activity in FlAsH-LexA cleavage assay (in words): tolerated but not significantly superior to ortho-substitution alone

## O=C(O)c1cn(C2CC2)c2cc(N3CCNCC3)c(F)cc2c1=O [ciprofloxacin, reference compound]
ΔtolC E. coli [8]; sub-MIC concentration 1.25 ng/mL
  mutation rate, ciprofloxacin alone: produced an induction of mutagenesis
ΔtolC E. coli [12]
  MIC: 5 ng/mL

## CCOc1ccc(NC(=O)Cn2nnc(C(=O)Nc3ccccc3C)c2N)cc1 [Compound 9]
[1]
  IC50: > 100 µM
[3]
  activity in FlAsH-LexA cleavage assay (in words): not tolerated

## Cc1cccc(NC(=O)Cn2nnc(C(=O)Nc3ccc(C)c(C)c3)c2N)c1 [Compound 6]
[1]
  IC50: > 100 µM
[3]
  activity in FlAsH-LexA cleavage assay (in words): not tolerated
